# Data taken from US9029536B2, “Fused heterocyclic compounds” (Takeda Pharmaceutical Company Limited, priority 2010, dated 2015).
# Where a name gives a salt, the structure may show the parent alone.
# Target: T1, Human PDE10A enzyme (Homo sapiens, UniProt Q9Y233)
# T1 construct: Sf9 or COS-7 cells transfected with the full-length gene; His-tag; made in house; host or cells: Sf9 or COS-7 cells
# Experiment: PDE enzyme inhibition (SPA, [3H]cGMP)
# Type: biochemical
# Conditions: 1 μM compound, [3H]cGMP substrate
# Description: Human PDE10A enzyme was generated from Sf9 or COS-7 cells transfected with the full-length gene. Cloned enzyme was extracted from homogenized cell pellets. The extracted enzyme from sf9 cells was partially purified using His-tag affinity column. The enzyme was stored at −70° C. until use. PDE activity was measured using a SPA (Scintillation Proximity Assay) (GE Healthcare). To evaluate the inhibitory activity, 10 μL of serial diluted compounds were incubated with 20 μL of PDE enzyme in assay buffer (50 mM HEPES-NaOH, 8.3 mM MgCl2, 1.7 mM EGTA, 0.1% BSA (pH 7.4)) for 30 min. at room temperature. Final concentration of DMSO in the assay was 1 percent as compounds were tested in duplicate in 96-well half-area plates (Corning). To start the reaction, 10 μL of substrate [^3H] cGMP (25 or 50 nM; enclosed in SPA kits from GE Healthcare or purchased from PerkinElmer, respectively) was added for a final assay volume of 40 μL. After 60 min incubation at room temperature, yttrium SPA beads containing Zinc sulphate were added (20 μL at 6 mg/mL) to terminate the PDE reaction. After being settled for 60 min, assay plates were counted in a scintillation counter (PerkinElmer) to allow calculation of inhibition rate. Inhibition rate was calculated on the basis of 0% control wells with DMSO and 100% control wells without enzyme.
# T1 sequence (Q9Y233 267-1055): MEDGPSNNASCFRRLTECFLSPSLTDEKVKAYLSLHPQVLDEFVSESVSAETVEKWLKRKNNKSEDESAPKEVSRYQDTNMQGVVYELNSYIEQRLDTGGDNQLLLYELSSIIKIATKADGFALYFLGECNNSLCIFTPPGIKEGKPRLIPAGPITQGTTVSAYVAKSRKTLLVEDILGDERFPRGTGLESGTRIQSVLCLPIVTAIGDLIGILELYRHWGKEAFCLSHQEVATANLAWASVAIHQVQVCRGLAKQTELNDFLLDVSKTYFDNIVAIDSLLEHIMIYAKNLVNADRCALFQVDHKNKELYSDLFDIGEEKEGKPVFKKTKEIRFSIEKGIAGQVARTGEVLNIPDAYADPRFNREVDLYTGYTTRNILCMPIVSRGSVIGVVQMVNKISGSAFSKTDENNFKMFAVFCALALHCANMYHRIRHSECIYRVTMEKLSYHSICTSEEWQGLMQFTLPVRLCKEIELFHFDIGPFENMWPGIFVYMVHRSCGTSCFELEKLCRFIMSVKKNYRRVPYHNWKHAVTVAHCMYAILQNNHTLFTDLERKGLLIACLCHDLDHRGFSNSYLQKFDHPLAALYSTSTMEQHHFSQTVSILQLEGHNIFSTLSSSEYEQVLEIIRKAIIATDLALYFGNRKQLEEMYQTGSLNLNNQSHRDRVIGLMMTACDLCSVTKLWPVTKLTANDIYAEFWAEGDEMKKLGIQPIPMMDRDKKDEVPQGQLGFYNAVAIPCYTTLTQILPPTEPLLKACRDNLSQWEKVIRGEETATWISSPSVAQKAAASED
row,SMILES,inhibition at 1 µM
1,"CCn1nc(-c2ccc(Oc3nc4ccccc4n3CC(C)(C)O)cc2)c2ncccc21 [Example 36, 1-{2-[4-(1-Ethyl-1H-pyrazolo[4,3-b]pyridin-3-yl)phenoxy]-1H-benzimidazol-1-yl}-2-methylpropan-2-ol]",99%
2,"CCn1nc(-c2ccc(C3CCn4c3nc3ccccc34)cc2)c2ncccc21 (centres unmarked) [Example 24, 3-[4-(1-Ethyl-1H-pyrazolo[4,3-b]pyridin-3-yl)phenyl]-2,3-dihydro-1H-pyrrolo[1,2-a]benzimidazole]",99%
3,"CC(C)n1nc(-c2ccc(Oc3nc4cccnc4n3C)cc2)c2ncc(F)cc21 [Example 40, 6-Fluoro-1-(1-methylethyl)-3-{4-[(3-methyl-3H-imidazo[4,5-b]pyridin-2-yl)oxy]phenyl}-1H-pyrazolo[4,3-b]pyridine]",101%
4,Cn1c(Oc2ccc(-c3nn(CC(F)F)c4cc(F)cnc34)cc2)nc2cccnc21 [Example 51],102%
5,"CCn1nc(-c2ccc(Oc3nc4cccnc4n3C)cc2)c2ncncc21 [Example 38, 1-Ethyl-3-{4-[(3-methyl-3H-imidazo[4,5-b]pyridin-2-yl)oxy]phenyl}-1H-pyrazolo[4,3-d]pyrimidine]",103%
6,"CCn1nc(-c2ccc3c(c2)CCN3c2nc3ccccc3[nH]2)c2ncccc21 [Example 7, 3-[1-(1H-Benzimidazol-2-yl)-2,3-dihydro-1H-indol-5-yl]-1-ethyl-1H-pyrazolo[4,3-b]pyridine]",101%
7,"CCn1nc(-c2ccc(Oc3nc4cccnc4n3C)cc2)c2nccnc21 [Example 28, 1-Ethyl-3-{4-[(3-methyl-3H-imidazo[4,5-b]pyridin-2-yl)oxy]phenyl}-1H-pyrazolo[3,4-b]pyrazine]",101%
8,"COCCn1c(Oc2ccc(-c3nn(CC(F)F)c4cc(F)cnc34)cc2)nc2cccnc21 [Example 49, 1-(2,2-Difluoroethyl)-6-fluoro-3-(4-{[3-(2-methoxyethyl)-3H-imidazo[4,5-b]pyridin-2-yl]oxy}phenyl)-1H-pyrazolo[4,3-b]pyridine]",103%
9,"CCn1nc(-c2ccc(Oc3nc4ccccc4[nH]3)cc2)c2ncccc21 [Example 3, 3-[4-(1H-Benzimidazol-2-yloxy)phenyl]-1-ethyl-1H-pyrazolo[4,3-b]pyridine]",97.7%
10,"CCn1nc(-c2ccc(Oc3nc4cccnc4n3CCOC)cc2)c2ncc(F)cc21 [Example 48, 1-Ethyl-6-fluoro-3-(4-{[3-(2-methoxyethyl)-3H-imidazo[4,5-b]pyridin-2-yl]oxy}phenyl)-1H-pyrazolo[4,3-b]pyridine]",104%
11,"CCn1nc(-c2ccc(Oc3nc4cccnc4n3C)cc2)c2ncc(F)cc21 [Example 37, 1-Ethyl-6-fluoro-3-{4-[(3-methyl-3H-imidazo[4,5-b]pyridin-2-yl)oxy]phenyl}-1H-pyrazolo[4,3-b]pyridine]",101%
12,"CCn1nc(-c2ccc(C(=O)c3nc4ccccc4n3C)cc2)c2ncccc21 [Example 6, [4-(1-Ethyl-1H-pyrazolo[4,3-b]pyridin-3-yl)phenyl] (1-methyl-1H-benzimidazol-2-yl)methanone]",95%
13,"c1ccc2[nH]c(Oc3ccc(-c4c5n(c6cccnc46)CCCC5)cc3)nc2c1 [Example 13, 10-[4-(1H-Benzimidazol-2-yloxy)phenyl]-6,7,8,9-tetrahydropyrido[2,3-b]indolizine]",103%
14,"CCn1nc(-c2ccc(Oc3nc4cccnc4n3CCOC)cc2)c2ncccc21 [Example 34, 1-Ethyl-3-(4-{[3-(2-methoxyethyl)-3H-imidazo[4,5-b]pyridin-2-yl]oxy}phenyl)-1H-pyrazolo[4,3-b]pyridine]",105%
15,"Cn1nc(-c2ccc(Oc3nc4cccnc4n3C)cc2)c2ncccc21 [Example 44, 1-Methyl-3-{4-[(3-methyl-3H-imidazo[4,5-b]pyridin-2-yl)oxy]phenyl}-1H-pyrazolo[4,3-b]pyridine]",107%
16,"CCn1nc(-c2ccc(Oc3nc4ccccc4n3C)cc2)c2ncccc21 [Example 4, 1-Ethyl-3-{4-[(1-methyl-1H-benzimidazol-2-yl)oxy]phenyl}-1H-pyrazolo[4,3-b]pyridine]",98.7%
17,"Cn1cc(-c2ccc(Nc3nc4ccccc4o3)cc2)c2ncccc21 [Example 1, N-[4-(1-Methyl-1H-pyrrolo[3,2-b]pyridin-3-yl)phenyl]-1,3-benzoxazol-2-amine hydrochloride]",97.6%
18,"COCCn1c(Oc2ccc(-c3nn(C)c4cc(F)cnc34)cc2)nc2cccnc21 [Example 50, 6-Fluoro-3-(4-{[3-(2-methoxyethyl)-3H-imidazo[4,5-b]pyridin-2-yl]oxy}phenyl)-1-methyl-1H-pyrazolo[4,3-b]pyridine]",100%
19,"COCCn1c(Oc2ccc(-c3nn(CC(F)F)c4cccnc34)cc2)nc2cccnc21 [Example 52, 1-(2,2-Difluoroethyl)-3-(4-{[3-(2-methoxyethyl)-3H-imidazo[4,5-b]pyridin-2-yl]oxy}phenyl)-1H-pyrazolo[4,3-b]pyridine]",101%
20,"CC(C)n1nc(-c2ccc(Oc3nc4cccnc4n3C)cc2)c2ncccc21 [Example 18, 1-(1-Methylethyl)-3-{4-[(3-methyl-3H-imidazo[4,5-b]pyridin-2-yl)oxy]phenyl}-1H-pyrazolo[4,3-b]pyridine]",100%
21,"CCn1nc(-c2ccc(Oc3cn4ccccc4n3)cc2)c2ncccc21 [Example 8, 1-Ethyl-3-[4-(imidazo[1,2-a]pyridin-2-yloxy)phenyl]-1H-pyrazolo[4,3-b]pyridine hydrochloride]",100%
22,"Cn1c(Oc2ccc(-c3nn(CC(F)F)c4cccnc34)cc2)nc2cccnc21 [Example 39, 1-(2,2-Difluoroethyl)-3-{4-[(3-methyl-3H-imidazo[4,5-b]pyridin-2-yl)oxy]phenyl}-1H-pyrazolo[4,3-b]pyridine]",102%
23,"CCn1nc(-c2ccc(Oc3nc4ccccc4[nH]3)nc2)c2ncccc21 [Example 10, 3-[6-(1H-Benzimidazol-2-yloxy)pyridin-3-yl]-1-ethyl-1H-pyrazolo[4,3-b]pyridine]",99%
24,COCCn1c(Oc2ccc(-c3nn(C(C)C)c4cccnc34)cc2)nc2cccnc21 [Example 35],93%
25,"Cn1nc(-c2ccc(Oc3nc4cccnc4n3C)cc2)c2ncc(F)cc21 [Example 45, 6-Fluoro-1-methyl-3-{4-[(3-methyl-3H-imidazo[4,5-b]pyridin-2-yl)oxy]phenyl}-1H-pyrazolo[4,3-b]pyridine]",95%

# Test system: not given
# Experiment: not given
# Conditions: not given
row,SMILES,melting point
1,"CCn1nc(-c2ccc(Oc3nc4ccccc4n3CC(C)(C)O)cc2)c2ncccc21 [Example 36, 1-{2-[4-(1-Ethyl-1H-pyrazolo[4,3-b]pyridin-3-yl)phenoxy]-1H-benzimidazol-1-yl}-2-methylpropan-2-ol]",152 to 153 °C
2,"CCn1nc(-c2ccc(Oc3nc4cccnc4n3C)cc2)c2ncncc21 [Example 38, 1-Ethyl-3-{4-[(3-methyl-3H-imidazo[4,5-b]pyridin-2-yl)oxy]phenyl}-1H-pyrazolo[4,3-d]pyrimidine]",218 to 220 °C
3,"CCn1nc(-c2ccc(Oc3nc4cccnc4n3C)cc2)c2ncccc21 [Example 14, 1-Ethyl-3-{4-[(3-methyl-3H-imidazo[4,5-b]pyridin-2-yl)oxy]phenyl}-1H-pyrazolo[4,3-b]pyridine]",176 to 177 °C
4,"CCn1nc(-c2ccc(Oc3nc4cccnc4n3C)cc2)c2nccnc21 [Example 28, 1-Ethyl-3-{4-[(3-methyl-3H-imidazo[4,5-b]pyridin-2-yl)oxy]phenyl}-1H-pyrazolo[3,4-b]pyrazine]",161 to 162 °C
5,"c1ccc2[nH]c(Oc3ccc(-c4c5n(c6cccnc46)CCCC5)cc3)nc2c1 [Example 13, 10-[4-(1H-Benzimidazol-2-yloxy)phenyl]-6,7,8,9-tetrahydropyrido[2,3-b]indolizine]",264 °C (dec.)
6,"CCn1nc(-c2ccc(Oc3nc4ccccc4n3CCO)cc2)c2ncccc21 [Example 29, 2-{2-[4-(1-Ethyl-1H-pyrazolo[4,3-b]pyridin-3-yl)phenoxy]-1H-benzimidazol-1-yl}ethanol]",183 to 184 °C
7,"CC(C)n1nc(-c2ccc(Oc3nc4cccnc4n3C)cc2)c2ncccc21 [Example 18, 1-(1-Methylethyl)-3-{4-[(3-methyl-3H-imidazo[4,5-b]pyridin-2-yl)oxy]phenyl}-1H-pyrazolo[4,3-b]pyridine]",163 to 164 °C
